Test results from publication PMC5840262, “Design, Synthesis and Evaluation of Branched RRWQWR-Based Peptides as Antibacterial Agents Against Clinically Relevant Gram-Positive and Gram-Negative Pathogens” (Frontiers in Microbiology, 2018).
Values after ≈ are worked out from the molar mass of the structure shown. Where two headings read alike, the source gives them in different places. Values belong to the molecule of their own block, whether it stands above or below them. Bridge positions count the residues as written; N and C are the ends. Square brackets hold non-standard residues; d marks the D form. Peptide text beside a SMILES is read from it. I, II: the chains in the order shown. Ahx = NCCCCCC(=O)O

Columns and labels:
[1] = system: Enterococcus faecalis ATCC 29212 (sensitive); type: cell-based; details: for Bacterial viability (lowest value observed): untreated control = 100%, Figure 2A
Experimental: (§1) We screened all five peptides against the ATCC reference strains and the clinical isolates according to Method M7-A7 of the National Committee for Clinical Laboratory Standards (CLSI, [2007]). The MIC50 and MBC values were determined using a broth microdilution and growth inhibition method previously reported by Leon-Calvijo et al. ([2015]), with some modifications (Wiegand et al., [2008]). Briefly, the MIC50 experiments comprised a liquid-inhibition growth assay in a sterile, untreated, 96-well flat-bottom tissue culture plate. The bacteria were cultured overnight n Mueller Hinton agar; three colonies were transferred to 8 mL of Mueller Hilton broth and incubated at 37°C until the mid-exponential phase of growth. The turbidity of the cultures was measured and adjusted spectrophotometrically to a McFarland standard of 0.5, and then diluted to a final concentration of 5 × 10^7 colony forming units (CFU) per well. Stock solutions (2,000 μM) of each test peptide were serially diluted to final concentrations (per well) of 200, 100, 50, 25, 12.5, and 6.25 μM. Each concentration was evaluated in duplicate and each assay was performed in triplicate.
(§2) Wells containing Mueller Hilton broth with bacterial inoculum only served as bacterial-growth controls. Additional controls included Mueller Hilton broth alone (as blank) and Mueller Hilton broth with ciprofloxacin (2 μg/mL; as positive control). The microplate was incubated for 24 h at 37°C, and growth inhibition was measured by monitoring the optical density at 620 nm (OD620). The MIC50 was defined as the peptide concentration at which bacterial growth was inhibited by 50%.
(§3) To determine the MBC, an aliquot from each well of the MIC50 assay was spread onto Mueller Hilton agar. After 18 h at 37°C, the concentration that inhibited bacterial growth was determined. Each of these tests was performed four times. MBC was defined as the lowest concentration of peptide at which the number of bacteria was reduced by 99.9% in vitro (European Committee for Antimicrobial Susceptibility Testing, [2000]).

[2] = system: Enterococcus faecalis ATCC 51575 (resistant); type: cell-based; details: for Bacterial viability (lowest value observed): untreated control = 100%, Figure 2B
Experimental: as §1, §2, §3

[3] = system: Pseudomonas aeruginosa ATCC 10145 (sensitive); type: cell-based
Experimental: as §1, §2, §3

[4] = system: Pseudomonas aeruginosa ATCC 27853 (resistant); type: cell-based
Experimental: as §1, §2, §3

[5] = system: Enterococcus faecium clinical isolate 1,040; type: cell-based
Experimental: (§4) For the clinical isolates, we used 20 different isolates from the Public Health Reference Laboratory collection of the Secretaría de Salud del Distrito (SdSD; Bogotá, Colombia). The samples were collected from June to December 2016. For each isolate, the patient parameters (age, gender and location) and the culture site were recorded for epidemiologic monitoring (Table 1). All isolates had been previously tested for antibiotic sensitivity at the Public Health Microbiology Laboratory using either the Phoenix™ system (Gram-positive) or the VITEK 2 system (Gram-negative).
as §1, §2, §3

[6] = system: Klebsiella pneumoniae clinical isolate 51,048; type: cell-based
Experimental: as §4, §1, §2, §3

[7] = system: Pseudomonas aeruginosa clinical isolate 48,458; type: cell-based
Experimental: as §4, §1, §2, §3

[8] = system: Staphylococcus aureus clinical isolate 48,575; type: cell-based
Experimental: as §4, §1, §2, §3

[9] = system: Staphylococcus aureus clinical isolate 48,577; type: cell-based
Experimental: as §4, §1, §2, §3

[10] = system: human erythrocytes; test: Hemolytic activity; type: cell-based
Experimental: Human erythrocytes collected from the blood samples of healthy humans were harvested by centrifugation for 7 min at 162 × g and washed three times in phosphate-buffered saline (PBS). The erythrocytes (2% hematocrit in PBS) were incubated with peptide molecules at several concentrations (6.25, 12.5, 25, 50, and 100 μM) for 2 h at 37°C. PBS was used as negative control for hemolysis, and sterile distilled water was used as positive control (100% hemolysis). The plate was subsequently centrifuged at 1,459 × g for 10 min at 4°C. Aliquots of the supernatant from each well (75 μL) were carefully transferred to a new sterile 96-well plate, and hemolytic activity was evaluated by measuring the OD492 using an Asys Expert Plus Microplate reader. The experiments were performed in duplicate, and hemolytic activity was calculated for each peptide.

[11] = system: Gram-negative ATCC strains (K. pneumoniae 13883 and 700603, P. aeruginosa 10145 and 27853); details: for Fold (GM peptide / GM tetrameric peptide): Gram-negative ATCC strains
Description: We determined the therapeutic index of each peptide, which we defined as the ratio of Maximum Hemolytic Activity (Hmax) to MIC50 (Hmax/MIC50).
The therapeutic index (TI) is a ratio of the toxic dose of a substance to its therapeutically-active dose and can be calculated different ways (e.g., LD50/ED50). Here, we calculated a TI value for each peptide against all the Gram-positive or the Gram-negative ATCC strains, by dividing its Hmax by its MIC50 for the given group of strains. […] Additionally, to make our quantitative analysis more robust [geometric mean (Khachatryan et al., [2017]) and fold values], we have included MIC50 values for these peptides against S. aureus and K. pneumoniae that we previously obtained using the same assay, the M7-A7 method of the National Committee for Clinical Laboratory Standards (Leon-Calvijo et al., [2015]).

- MIC50 ([1]; ATCC 29212, 24 h): 13.1 µM (≈ 28.8 µg/mL)
- MIC50 ([2]; ATCC 51575, 24 h): >200.0 µM
- MIC50 ([3]; ATCC 10145, 24 h): 29.1 µM (≈ 63.9 µg/mL)
- MIC50 ([4]; ATCC 27853, 24 h): 34.8 µM (≈ 76.4 µg/mL)
- MIC50 ([5]; clinical isolate 1,040, 24 h): >100 µM
- MIC50 ([6]; clinical isolate 51,048, 24 h): 5.7 µM (≈ 12.5 µg/mL)
- MIC50 ([7]; clinical isolate 48,458, 24 h): 75.0 µM (≈ 165 µg/mL)
- MIC50 ([8]; clinical isolate 48,575, 24 h): 13.4 µM (≈ 29.4 µg/mL)
- MIC50 ([9]; clinical isolate 48,577, 24 h): 12.9 µM (≈ 28.3 µg/mL)
- Gm, geometric mean of MIC50 values [11]: 16.1
Molecule: N=C(N)NCCC[C@H](NC(=O)[C@H](Cc1c[nH]c2ccccc12)NC(=O)[C@H](CCC(N)=O)NC(=O)[C@H](Cc1c[nH]c2ccccc12)NC(=O)[C@H](CCCNC(=N)N)NC(=O)[C@@H](N)CCCNC(=N)N)C(=O)NCCCC[C@H](NC(=O)[C@H](CCCNC(=N)N)NC(=O)[C@H](Cc1c[nH]c2ccccc12)NC(=O)[C@H](CCC(N)=O)NC(=O)[C@H](Cc1c[nH]c2ccccc12)NC(=O)[C@H](CCCNC(=N)N)NC(=O)[C@@H](N)CCCNC(=N)N)C(=O)NCCCCCC(N)=O [LfcinB (20–25)2] (I: H-RRWQWRK[Ahx]-NH2 / II: H-RRWQWR; amide I:7-II:C; N-terminus assumed)
- Bacterial viability (lowest value observed) ([1]; 25 μM): 40.9%
- MBC ([1]; ATCC 29212, 18 h): 100.0 µM (≈ 220 µg/mL)
- MBC relative to MBC of the tetrameric peptide (× MBCtet) ([1]; sensitive E. faecalis strain): 4 × MBCtet
- Bacterial viability (lowest value observed) ([2]; 25.0 μM): 65.3%
- MBC ([2]; ATCC 51575, 18 h): >200.0 µM
- MBC ([3]; ATCC 10145, 18 h): 100.0 µM (≈ 220 µg/mL)
- MBC relative to MBC of the tetrameric peptide (× MBCtet) ([3]; sensitive P. aeruginosa strain): 4 × MBCtet
- MBC ([4]; ATCC 27853, 18 h): 200.0 µM (≈ 439 µg/mL)
- MBC relative to MBC of the tetrameric peptide (× MBCtet) ([4]; resistant P. aeruginosa strain): 4 × MBCtet
- MBC ([5]; clinical isolate 1,040, 18 h): >100 µM
- MBC ([6]; clinical isolate 51,048, 18 h): 100.0 µM (≈ 220 µg/mL)
- MBC ([7]; clinical isolate 48,458, 18 h): >100 µM
- MBC ([8]; clinical isolate 48,575, 18 h): 25.0 µM (≈ 54.9 µg/mL)
- MBC ([9]; clinical isolate 48,577, 18 h): 50.0 µM (≈ 110 µg/mL)
- H50, concentration of peptide leading to 50% hemolysis ([10]; red cells of human, 2 h): >100 µM
- Fold (GM peptide / GM tetrameric peptide) [11]: 1.2

- MIC50 ([1]; E. faecalis ATCC 29212 sensitive, broth microdilution, Mueller Hinton broth, 24 h 37°C, OD620, concentration inhibiting growth by 50%): 3.1 µM
- MIC50 ([2]; E. faecalis ATCC 51575 resistant, broth microdilution, 24 h 37°C, OD620, 50% growth inhibition): >200.0 µM
- MIC50 ([3]; P. aeruginosa ATCC 10145 sensitive, broth microdilution, 24 h 37°C, OD620, 50% growth inhibition): 18.1 µM
- MIC50 ([4]; P. aeruginosa ATCC 27853 resistant, broth microdilution, 24 h 37°C, OD620, 50% growth inhibition): 21.7 µM
- MIC50 ([5]; E. faecium isolate 1,040, broth microdilution, 24 h 37°C, OD620, 50% growth inhibition): >100 µM
- MIC50 ([6]; K. pneumoniae isolate 51,048, broth microdilution, 24 h 37°C, OD620, 50% growth inhibition): 5.2 µM
- MIC50 ([7]; P. aeruginosa isolate 48,458, broth microdilution, 24 h 37°C, OD620, 50% growth inhibition): 72.8 µM
- MIC50 ([8]; S. aureus isolate 48,575, broth microdilution, 24 h 37°C, OD620, 50% growth inhibition): 9.2 µM
- MIC50 ([9]; S. aureus isolate 48,577, broth microdilution, 24 h 37°C, OD620, 50% growth inhibition): 6.3 µM
- Gm, geometric mean of MIC50 values ([11]; Gram-negative ATCC strains 13883, 700603, 10145, 27853, in µM): 13.1
Molecule: (RRWQWR)4K2Ahx2C2 (disulfide) [LfcinB (20–25)4, branched tetrameric peptide (RRWQWR)4K2Ahx2C2, two dimers linked by a cysteine disulfide bridge]
- Bacterial viability (lowest value observed) ([1]; 6.2 μM): 48.9%
- MBC ([1]; E. faecalis ATCC 29212 sensitive, aliquots of MIC50 wells on Mueller Hinton agar, 18 h 37°C, 99.9% reduction): 25.0 µM
- Bacterial viability (lowest value observed) ([2]; 12.5 μM): 62.4%
- MBC ([2]; E. faecalis ATCC 51575 resistant, plated on Mueller Hinton agar, 18 h 37°C, 99.9% reduction): >200.0 µM
- MBC ([3]; P. aeruginosa ATCC 10145 sensitive, plated on Mueller Hinton agar, 18 h 37°C, 99.9% reduction): 50.0 µM
- MBC ([4]; P. aeruginosa ATCC 27853 resistant, plated on Mueller Hinton agar, 18 h 37°C, 99.9% reduction): 50.0 µM
- MBC ([5]; E. faecium isolate 1,040, plated on agar 18 h 37°C, 99.9% reduction): >100 µM
- MBC ([6]; K. pneumoniae isolate 51,048, plated on agar 18 h 37°C, 99.9% reduction): 50.0 µM
- MBC ([7]; P. aeruginosa isolate 48,458, plated on agar 18 h 37°C, 99.9% reduction): >100 µM
- MBC ([8]; S. aureus isolate 48,575, plated on agar 18 h 37°C, 99.9% reduction): 12.5 µM
- MBC ([9]; S. aureus isolate 48,577, plated on agar 18 h 37°C, 99.9% reduction): 100.0 µM
- Hmax relative to that of the dimer [10]: 8 x
- Fold (GM peptide / GM tetrameric peptide) [11]: 1.0
